The text below walks through data of patent publication US20260015350A1, “AZAQUINAZOLINE PAN-KRAS INHIBITORS” (Mirati Therapeutics, Inc., priority 2022, published 2026).

The target of one assay is T1, KRas^G12D (Homo sapiens, UniProt P01116, G12D).
T1 construct: Biotinylated KRas (corresponding to amino acids 1-169, produced at Accelegan Inc.); biotin (biotinylated); purchased Accelegan Inc
Briefly: KRas binding assay (TR-FRET tracer displacement), KRas G12D. A general note: TR-FRET usually uses a lanthanide donor and a delayed reading to cut background.

Assay [1] deals with KRas-mediated phosphorylation of ERK in H727 cells. Briefly: Inhibition of KRas-mediated phosphorylation of ERK (Cisbio HTRF pERK), H727 cells. It counts as cell-based. As to conditions: Homo sapiens, NCI-H727, H727 cells; HTRF pERK. The gist of the method:
(§1)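 Cells were seeded at 6,000 per well and treated for 3 hrs with compound in a 10-dose, 3-fold series from 10 uM (0.8% final DMSO), with 0.2 uM Trametinib as Min control. Lysates made at 4° C over 40 mins were incubated 2 hrs at room temperature with d2- and Cryptate-labelled antibodies, then read by HTRF.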

The test system of assay [2] is KRas-mediated phosphorylation of ERK in AsPC-1 cells. Briefly: Inhibition of KRas-mediated phosphorylation of ERK (Cisbio HTRF pERK), AsPC-1 cells. As to conditions: Homo sapiens, ASPC1, AsPC-1 cells; HTRF pERK. It is filed as cell-based. The gist of the method: as §1
For a further assay, the target named is T2, KRas^G12R (Homo sapiens, UniProt P01116, G12R).
T2 construct: Biotinylated KRas (corresponding to amino acids 1-169, produced at Accelegan Inc.); biotin (biotinylated); purchased Accelegan Inc
Briefly: KRas binding assay (TR-FRET tracer displacement), KRas G12R.

The target of a further assay is T3, KRas^G12V (Homo sapiens, UniProt P01116, G12V).
T3 construct: Biotinylated KRas (corresponding to amino acids 1-169, produced at Accelegan Inc.); biotin (biotinylated); purchased Accelegan Inc
Briefly: KRas binding assay (TR-FRET tracer displacement), KRas G12V.

Assay [3] concerns KRas-mediated phosphorylation of ERK in HCT116 cells. Briefly: Inhibition of KRas-mediated phosphorylation of ERK (Cisbio HTRF pERK), HCT116 cells. It is filed as cell-based. As to conditions: Homo sapiens, HCT-116, HTRF pERK. The method, boiled down:
(§2)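 Following a 3-hr exposure of cells to serially diluted compound (from 10 uM, 3-fold, 10 doses), cold lysis for 40 mins preceded a 2-hr room-temperature HTRF immunoassay for phosphorylated ERK.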

The test system of assay [4] is KRas-mediated phosphorylation of ERK in H358 cells. Briefly: Inhibition of KRas-mediated phosphorylation of ERK (Cisbio HTRF pERK), H358 cells. It counts as cell-based. As to conditions: Homo sapiens, NCI-H358, HTRF pERK. The method, boiled down: as §1
In assay [5] the test system is KRas-mediated phosphorylation of ERK in MKN1 cells. Briefly: Inhibition of KRas-mediated phosphorylation of ERK (Cisbio HTRF pERK), MKN1 cells. It counts as cell-based. As to conditions: Homo sapiens, MKN-1. The gist of the method: (§3)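 Seeding density was 6,000 cells/well; medium RPMI, 10% FBS. Read-out by homogeneous time-resolved fluorescence (pERK) after 4 hours covered at room temperature.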

Assay [6] relates to KRas-mediated phosphorylation of ERK in PSN1 cells. Briefly: Inhibition of KRas-mediated phosphorylation of ERK (Cisbio HTRF pERK), PSN1 cells. The following applies: Homo sapiens. It is filed as cell-based. The gist of the method: as §3
Assay [7] concerns KRas-mediated phosphorylation of ERK in H460 cells. Briefly: Inhibition of KRas-mediated phosphorylation of ERK (Cisbio HTRF pERK), H460 cells. It counts as cell-based. As to conditions: Homo sapiens, NCI-H460, HTRF pERK. The method, boiled down: as §1
The test system of assay [8] is KRas-mediated phosphorylation of ERK in A549 cells. Briefly: Inhibition of KRas-mediated phosphorylation of ERK (Cisbio HTRF pERK), A549 cells. As to conditions: Homo sapiens, HTRF pERK. It counts as cell-based. The method, boiled down:
as §2

T2 sequence (P01116 1-169 isoform P01116-2 G12R): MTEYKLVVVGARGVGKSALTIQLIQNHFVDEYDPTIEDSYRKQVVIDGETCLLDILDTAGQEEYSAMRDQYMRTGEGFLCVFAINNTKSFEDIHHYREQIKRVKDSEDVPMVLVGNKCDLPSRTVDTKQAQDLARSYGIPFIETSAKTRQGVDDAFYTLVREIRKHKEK
T3 sequence (P01116 1-169 isoform P01116-2 G12V): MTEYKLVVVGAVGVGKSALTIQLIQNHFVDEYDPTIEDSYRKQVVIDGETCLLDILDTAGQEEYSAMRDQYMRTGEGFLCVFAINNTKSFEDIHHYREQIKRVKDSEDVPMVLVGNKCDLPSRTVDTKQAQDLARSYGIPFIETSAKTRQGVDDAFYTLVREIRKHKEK
T1 sequence (P01116 1-169 isoform P01116-2 G12D): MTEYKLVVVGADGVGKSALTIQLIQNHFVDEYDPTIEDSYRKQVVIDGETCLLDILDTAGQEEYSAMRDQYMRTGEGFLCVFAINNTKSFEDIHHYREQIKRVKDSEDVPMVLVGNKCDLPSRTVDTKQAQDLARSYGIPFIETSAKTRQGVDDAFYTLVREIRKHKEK

As for `CCc1c(F)ccc2cc(O)cc(-c3ncc4c(N5C[C@H]6CC[C@@H](C5)[C@H]6O)nc(OC[C@@]56CCCN5C[C@H](F)C6)nc4c3F)c12` [Example 848, (1R,5S,8S)-3-(7-(8-ethyl-7-fluoro-3-hydroxynaphthalen-1-yl)-8-fluoro-2-(((2R,7aS)-2-fluorotetrahydro-1H-pyrrolizin-7a(5H)-yl)methoxy)pyrido[4,3-d]pyrimidin-4-yl)-3-azabicyclo[3.2.1]octan-8-ol], the half-maximal inhibitory concentration (IC50) on KRas^G12D is 39 nM; in [1], 896 nM; in assay [2] it was 2060 nM; at KRas^G12R, 12 nM; at KRas^G12V, 9 nM; in assay [3] it was 496 nM. Also, the IC50 in [4] is 310 nM; in [5], 100 nM; in [6], > 10000 nM; in assay [7] it was 275 nM; in [8], 809 nM.

`C=C1[C@@H]2CC[C@H]1CN(c1nc(OC[C@@]34CCCN3C[C@H](F)C4)nc3c(F)c(-c4cc(O)cc5ccc(F)c(CC)c45)ncc13)C2` [Example 849, 5-ethyl-6-fluoro-4-(8-fluoro-2-(((2R,7aS)-2-fluorotetrahydro-1H-pyrrolizin-7a(5H)-yl)methoxy)-4-((1R,5S)-8-methylene-3-azabicyclo[3.2.1]octan-3-yl)pyrido[4,3-d]pyrimidin-7-yl)naphthalen-2-ol]: the IC50 at KRas^G12D stood at 65 nM; in assay [1], 1000 nM; in assay [2] it was 3090 nM; on KRas^G12R it was 24 nM; at KRas^G12V, 9 nM; in [3] it was 1780 nM. Moreover, the IC50 was 286 nM in assay [4]; 189 nM in assay [5]; > 10000 nM in assay [6]; 802 nM in [7]; 1270 nM in assay [8].

As to `CCc1c(F)ccc2cc(O)cc(-c3ncc4c(N5CC6CCC(C5)C6C(=O)NC)nc(OC[C@@]56CCCN5C[C@H](F)C6)nc4c3F)c12` (stereo partly drawn) [Example 850, (1R,5S,8S)-3-(7-(8-ethyl-7-fluoro-3-hydroxynaphthalen-1-yl)-8-fluoro-2-(((2R,7aS)-2-fluorotetrahydro-1H-pyrrolizin-7a(5H)-yl)methoxy)pyrido[4,3-d]pyrimidin-4-yl)-N-methyl-3-azabicyclo[3.2.1]octane-8-carboxamide], the IC50 was 6 nM on KRas^G12D; 2280 nM in assay [1]; 1450 nM in [2]; 10 nM at KRas^G12R; 8 nM on KRas^G12V; 171 nM in [3]. Also, the IC50 in [4] was 150 nM; in assay [5] it was 4 nM; in assay [6], > 10000 nM; in assay [7], 83 nM; in [8], 862 nM.

As to `CCc1c(F)ccc2cc(O)cc(-c3ncc4c(N5CCC[C@@](C)(O)C5)nc(OC[C@@]56CCCN5[C@H](COCC5CCC5)CC6)nc4c3F)c12` [Example 852, (R)-1-(2-(((3S,7aS)-3-((cyclobutylmethoxy)methyl)tetrahydro-1H-pyrrolizin-7a(5H)-yl)methoxy)-7-(8-ethyl-7-fluoro-3-hydroxynaphthalen-1-yl)-8-fluoropyrido[4,3-d]pyrimidin-4-yl)-3-methylpiperidin-3-ol], the IC50 on KRas^G12D was < 2 nM; in assay [1], 109 nM; in assay [2] it was 35 nM; at KRas^G12R, < 2 nM; on KRas^G12V, < 2 nM; in assay [3] it was 38 nM. The IC50 in [4] worked out at 12 nM; in [5] it was 5 nM; in assay [6] it was 923 nM; in [7] it was 42 nM; in assay [8] it was 68 nM.

`CCOC[C@@H]1CC[C@]2(COc3nc(N4CCC[C@@](C)(O)C4)c4cnc(-c5cc(O)cc6ccc(F)c(CC)c56)c(F)c4n3)CCCN12` [Example 853, (R)-1-(2-(((3S,7aS)-3-(ethoxymethyl)tetrahydro-1H-pyrrolizin-7a(5H)-yl)methoxy)-7-(8-ethyl-7-fluoro-3-hydroxynaphthalen-1-yl)-8-fluoropyrido[4,3-d]pyrimidin-4-yl)-3-methylpiperidin-3-ol]: the concentration for half-maximal inhibition (IC50) at KRas^G12D is < 2 nM; in assay [1], 67 nM; in [2] it was 33 nM; at KRas^G12R, < 2 nM; on KRas^G12V it was < 2 nM; in assay [3], 36 nM. Also, the IC50 came to 10 nM in assay [4]; 1 nM in assay [5]; 1070 nM in [6]; 23 nM in assay [7]; 39 nM in [8].

With `CN(C)CC1(COc2nc(N3CCCC4(CCO4)C3)c3cnc(-c4cc(O)cc5ccc(F)c(Cl)c45)c(F)c3n2)CC1` (stereo not shown) [Example 854, 5-chloro-4-(2-((1-((dimethylamino)methyl)cyclopropyl)methoxy)-8-fluoro-4-(1-oxa-6-azaspiro[3.5]nonan-6-yl)pyrido[4,3-d]pyrimidin-7-yl)-6-fluoronaphthalen-2-ol], the half-inhibitory concentration (IC50) is < 2 nM at KRas^G12D; 48 nM in assay [1]; 20 nM in assay [2]; < 2 nM at KRas^G12R; < 2 nM on KRas^G12V; 40 nM in assay [3]. The IC50 in [4] was 11 nM; in [5] it was 6 nM; in [6], 3690 nM; in assay [7], 21 nM; in assay [8], 36 nM.

On to `CCc1c(F)ccc2cc(O)cc(-c3ncc4c(N5CC6CCC(COCCOC)(C6)C5)nc(OC[C@@]56CCCN5C[C@H](F)C6)nc4c3F)c12` (stereo partly drawn) [Example 857, 5-ethyl-6-fluoro-4-(8-fluoro-2-(((2R,7aS)-2-fluorotetrahydro-1H-pyrrolizin-7a(5H)-yl)methoxy)-4-(1-((2-methoxyethoxy)methyl)-3-azabicyclo[3.2.1]octan-3-yl)pyrido[4,3-d]pyrimidin-7-yl)naphthalen-2-ol], for which the concentration for half-maximal inhibition (IC50) at KRas^G12D came to 19 nM; in assay [1] it was 352 nM; in assay [2] it was 967 nM; at KRas^G12R it was 9 nM; at KRas^G12V, 6 nM; in assay [3], 410 nM. Moreover, the IC50 in [4] is 369 nM; in assay [5] it was 6 nM; in assay [6], > 10000 nM; in assay [7] it was 144 nM; in assay [8] it was 611 nM.

In the case of `CCc1c(F)ccc2cc(O)cc(-c3ncc4c(N5CC6CCC(C5)C6C(=O)N(C)C)nc(OC[C@@]56CCCN5C[C@H](F)C6)nc4c3F)c12` (stereo partly drawn) [Example 858, (1R,5S,8S)-3-(7-(8-ethyl-7-fluoro-3-hydroxynaphthalen-1-yl)-8-fluoro-2-(((2R,7aS)-2-fluorotetrahydro-1H-pyrrolizin-7a(5H)-yl)methoxy)pyrido[4,3-d]pyrimidin-4-yl)-N,N-dimethyl-3-azabicyclo[3.2.1]octane-8-carboxamide], the half-inhibitory concentration (IC50) on KRas^G12D was 6 nM; in assay [1], 375 nM; in [2] it was 138 nM; on KRas^G12R, 10 nM; at KRas^G12V, 7 nM; in assay [3] it was 21 nM. Also, the IC50 is 43 nM in assay [4]; 3 nM in [5]; > 10000 nM in assay [6]; 7 nM in assay [7]; 19 nM in assay [8].

By IC50 is commonly meant the concentration that inhibits the measured activity by half. High values mean lower potency, low ones higher potency.
